Results taken from publication PMC6510361 (Medicine and Pharmacy Reports, 2019).

What was measured:
[1] = cited from earlier work
[2] = test system: CYP2D6; settings: sertraline, fluvoxamine: ref 17; bupropion in vitro ref 12, in vivo ref 13; cited from earlier work
[3] = test system: rat pooled liver microsomes
[4] = test system: CYP1A2; settings: cited from earlier work
[5] = test system: CYP2C9; settings: cited from earlier work

Row | SMILES | beta-blocking potency relative to carvedilol [1] | CYP2D6 inhibition [2] | decrease of carvedilol metabolisation rate [3] | inhibitory potency compared with citalopram ([3]; based on metabolization rate and AUC0–30, citalopram data ref 20) | CYP1A2 inhibition [4] | CYP2C9 inhibition [5]
1 | COc1cc(O)ccc1OCCNCC(O)COc1cccc2[nH]c3ccccc3c12 (centres unmarked) [4′-hydroxyphenyl carvedilol] | approximately 13 times | – | – | – | – | –
2 | CC(NC(C)(C)C)C(=O)c1cccc(Cl)c1 (centres unmarked) [Bupropion, bupropion] | – | inhibits | – | – | – | –
3 | COCCCC/C(=N\OCCN)c1ccc(C(F)(F)F)cc1 [Fluvoxamine, fluvoxamine] | – | weak inhibitor | 25.19% | stronger inhibitors than citalopram | strong inhibitor | moderate inhibitor
4 | CN[C@H]1CC[C@@H](c2ccc(Cl)c(Cl)c2)c2ccccc21 [Sertraline, sertraline] | – | moderate inhibitor | 63.63% | – | weak inhibitor | weak inhibitor
